Results published in patent publication US20170190705A1, “Compositions and Methods for Inhibiting BMP” (THE BRIGHAM AND WOMAN'S HOSPITAL, INC., priority 2014, published 2017).

Experiments:
Assay type in all cases: biochemical
[1] = target: T1, CHEK1 (Homo sapiens, UniProt O14757); assay: Kinome profiling CHEK1; details: read-out: Inhibitory activity CHEK1; for inhibition at 0.1 µM: 100 nM
T1 sequence (O14757 1-476): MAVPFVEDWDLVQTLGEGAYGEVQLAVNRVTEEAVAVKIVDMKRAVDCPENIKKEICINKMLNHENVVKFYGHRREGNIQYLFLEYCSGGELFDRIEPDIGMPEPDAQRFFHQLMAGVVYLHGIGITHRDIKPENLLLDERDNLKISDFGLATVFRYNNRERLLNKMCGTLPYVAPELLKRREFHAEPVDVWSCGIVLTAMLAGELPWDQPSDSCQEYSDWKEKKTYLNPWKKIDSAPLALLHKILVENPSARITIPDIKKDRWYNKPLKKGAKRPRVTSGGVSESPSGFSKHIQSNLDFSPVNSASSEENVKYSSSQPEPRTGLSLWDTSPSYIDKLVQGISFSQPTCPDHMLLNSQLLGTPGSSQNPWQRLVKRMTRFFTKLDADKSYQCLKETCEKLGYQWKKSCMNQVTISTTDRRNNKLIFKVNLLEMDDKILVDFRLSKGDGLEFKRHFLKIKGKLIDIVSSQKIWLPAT
Method: (§1) . The kinome-wide selectivity was determined following the methods previously reported by Mohedas et al., ACS Chem Biol 2013, 8, 1291-1302 and Sanvitale et al., PLoS One 2013, 8, e62721.

[2] = target: FER (Homo sapiens, UniProt P16591); assay: Kinome profiling FER; details: read-out: Inhibitory activity FER; for inhibition at 0.1 µM: 100 nM
Method: as §1

[3] = target: ROS (Homo sapiens, UniProt P08922); assay: Kinome profiling ROS; details: read-out: Inhibitory activity ROS; for inhibition at 0.1 µM: 100 nM
Method: as §1

[4] = target: EPH-A2 (Homo sapiens, UniProt P29317); assay: Kinome profiling EPH-A2; details: read-out: Inhibitory activity EPH-A2; for inhibition at 0.1 µM: 100 nM
Method: as §1

[5] = target: AMP-A1B1G1 (Homo sapiens, UniProt Q13131); assay: Kinome profiling AMP-A1B1G1; details: read-out: Inhibitory activity AMP-A1B1G1; for inhibition at 0.1 µM: 100 nM
Method: as §1

[6] = target: T2, PKC-1 (Homo sapiens, UniProt P41743); assay: Kinome profiling PKC-1; details: read-out: Inhibitory activity PKC-1; for inhibition at 0.1 µM: 100 nM
T2 sequence (P41743 2-596 limits assumed): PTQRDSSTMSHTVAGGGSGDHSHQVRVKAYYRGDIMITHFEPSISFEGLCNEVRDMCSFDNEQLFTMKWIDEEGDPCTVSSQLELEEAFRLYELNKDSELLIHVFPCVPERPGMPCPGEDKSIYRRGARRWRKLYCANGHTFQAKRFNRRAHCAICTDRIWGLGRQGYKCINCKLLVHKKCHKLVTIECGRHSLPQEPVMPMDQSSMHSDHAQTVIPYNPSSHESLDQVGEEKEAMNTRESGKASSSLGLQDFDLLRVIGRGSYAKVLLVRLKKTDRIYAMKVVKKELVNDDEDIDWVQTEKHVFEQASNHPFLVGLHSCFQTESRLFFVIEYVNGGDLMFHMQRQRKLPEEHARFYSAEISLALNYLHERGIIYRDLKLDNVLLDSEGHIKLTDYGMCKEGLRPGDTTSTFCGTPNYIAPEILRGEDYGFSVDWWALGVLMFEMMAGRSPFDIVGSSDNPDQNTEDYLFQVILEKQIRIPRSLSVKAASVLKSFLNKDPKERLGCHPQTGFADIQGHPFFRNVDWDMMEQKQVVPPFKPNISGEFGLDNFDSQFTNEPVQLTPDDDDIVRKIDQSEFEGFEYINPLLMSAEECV
Method: as §1

[7] = target: T3, FLT-3 (Homo sapiens, UniProt P36888); assay: Kinome profiling FLT-3; details: read-out: Inhibitory activity FLT-3; for inhibition at 0.1 µM: 100 nM
T3 sequence (P36888 27-993): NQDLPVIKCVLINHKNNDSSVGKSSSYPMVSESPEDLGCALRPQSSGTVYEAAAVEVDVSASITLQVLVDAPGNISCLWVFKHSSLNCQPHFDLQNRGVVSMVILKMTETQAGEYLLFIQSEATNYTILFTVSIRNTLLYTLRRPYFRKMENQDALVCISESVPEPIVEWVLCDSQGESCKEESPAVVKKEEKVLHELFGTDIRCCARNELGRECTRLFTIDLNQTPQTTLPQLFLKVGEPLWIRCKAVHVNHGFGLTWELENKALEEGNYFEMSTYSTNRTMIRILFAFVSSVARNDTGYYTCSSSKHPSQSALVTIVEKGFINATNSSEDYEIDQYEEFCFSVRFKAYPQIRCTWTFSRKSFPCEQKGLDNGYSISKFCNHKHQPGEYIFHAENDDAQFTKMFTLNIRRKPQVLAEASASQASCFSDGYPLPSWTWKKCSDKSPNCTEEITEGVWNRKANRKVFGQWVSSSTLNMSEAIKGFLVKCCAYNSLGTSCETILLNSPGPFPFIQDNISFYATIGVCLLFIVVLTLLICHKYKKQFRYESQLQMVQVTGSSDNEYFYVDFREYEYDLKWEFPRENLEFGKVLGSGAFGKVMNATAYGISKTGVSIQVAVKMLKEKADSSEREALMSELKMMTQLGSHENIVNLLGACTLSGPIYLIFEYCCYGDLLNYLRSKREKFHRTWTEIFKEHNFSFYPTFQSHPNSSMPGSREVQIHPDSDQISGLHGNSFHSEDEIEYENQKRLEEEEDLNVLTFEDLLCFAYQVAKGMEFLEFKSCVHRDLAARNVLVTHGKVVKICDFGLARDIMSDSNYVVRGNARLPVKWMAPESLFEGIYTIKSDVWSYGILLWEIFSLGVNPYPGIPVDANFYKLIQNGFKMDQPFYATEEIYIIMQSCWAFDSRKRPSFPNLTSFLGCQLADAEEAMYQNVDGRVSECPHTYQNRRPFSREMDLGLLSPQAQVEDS
Method: as §1

[8] = target: FES (Homo sapiens, UniProt P07332); assay: Kinome profiling FES; details: read-out: Inhibitory activity FES; for inhibition at 0.1 µM: 100 nM
Method: as §1

[9] = target: GRK6 (Homo sapiens, UniProt P43250); assay: Kinome profiling GRK6; details: read-out: Inhibitory activity GRK6; for inhibition at 0.1 µM: 100 nM
Method: as §1

[10] = target: TNK2 (Homo sapiens, UniProt Q07912); assay: Kinome profiling TNK2; details: read-out: Inhibitory activity TNK2; for inhibition at 0.1 µM: 100 nM
Method: as §1

FES, sequence (P07332 whole entry): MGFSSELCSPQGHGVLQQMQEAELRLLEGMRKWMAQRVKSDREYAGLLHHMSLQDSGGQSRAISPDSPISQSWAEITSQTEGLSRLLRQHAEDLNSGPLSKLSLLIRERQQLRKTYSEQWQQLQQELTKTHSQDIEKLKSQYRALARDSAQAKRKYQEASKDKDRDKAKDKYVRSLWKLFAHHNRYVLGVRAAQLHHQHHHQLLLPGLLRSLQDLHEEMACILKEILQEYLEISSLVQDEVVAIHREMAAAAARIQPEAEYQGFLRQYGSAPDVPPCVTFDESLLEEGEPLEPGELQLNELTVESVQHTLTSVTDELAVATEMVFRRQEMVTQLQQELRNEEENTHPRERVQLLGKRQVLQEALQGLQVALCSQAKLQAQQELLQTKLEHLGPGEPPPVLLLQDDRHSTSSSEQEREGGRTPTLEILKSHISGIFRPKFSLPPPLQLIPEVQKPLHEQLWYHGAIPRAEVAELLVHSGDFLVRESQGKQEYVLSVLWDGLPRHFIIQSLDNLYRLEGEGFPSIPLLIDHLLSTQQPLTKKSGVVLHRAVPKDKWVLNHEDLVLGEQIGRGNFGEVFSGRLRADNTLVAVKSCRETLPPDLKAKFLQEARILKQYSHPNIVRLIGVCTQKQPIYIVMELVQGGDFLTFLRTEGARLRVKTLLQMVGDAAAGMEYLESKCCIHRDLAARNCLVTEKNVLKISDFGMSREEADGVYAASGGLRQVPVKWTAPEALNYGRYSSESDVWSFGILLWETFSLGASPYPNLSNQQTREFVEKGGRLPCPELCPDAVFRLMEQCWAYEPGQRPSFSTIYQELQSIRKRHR
AMP-A1B1G1, sequence (Q13131 whole entry): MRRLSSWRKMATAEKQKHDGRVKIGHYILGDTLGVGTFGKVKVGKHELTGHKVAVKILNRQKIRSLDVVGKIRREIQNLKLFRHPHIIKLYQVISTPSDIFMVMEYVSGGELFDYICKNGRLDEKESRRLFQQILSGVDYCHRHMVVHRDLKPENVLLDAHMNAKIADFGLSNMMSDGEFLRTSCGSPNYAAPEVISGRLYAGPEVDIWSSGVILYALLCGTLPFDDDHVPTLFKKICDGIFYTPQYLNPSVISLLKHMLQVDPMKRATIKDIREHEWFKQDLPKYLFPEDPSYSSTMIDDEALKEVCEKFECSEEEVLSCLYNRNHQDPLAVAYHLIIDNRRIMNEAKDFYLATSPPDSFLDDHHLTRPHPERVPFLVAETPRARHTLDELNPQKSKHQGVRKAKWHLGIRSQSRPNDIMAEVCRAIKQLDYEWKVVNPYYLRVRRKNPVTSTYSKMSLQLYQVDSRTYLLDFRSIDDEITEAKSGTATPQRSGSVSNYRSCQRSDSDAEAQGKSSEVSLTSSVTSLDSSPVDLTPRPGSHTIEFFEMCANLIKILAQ
AMP-A1B1G1, sequence (Q9Y478 whole entry partner): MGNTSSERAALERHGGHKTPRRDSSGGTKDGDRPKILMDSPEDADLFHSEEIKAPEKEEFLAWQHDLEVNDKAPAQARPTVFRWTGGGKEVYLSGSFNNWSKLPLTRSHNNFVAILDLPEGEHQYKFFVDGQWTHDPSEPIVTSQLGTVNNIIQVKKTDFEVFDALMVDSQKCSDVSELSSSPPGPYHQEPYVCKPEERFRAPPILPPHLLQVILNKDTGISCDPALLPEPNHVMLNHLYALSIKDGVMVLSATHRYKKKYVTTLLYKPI
AMP-A1B1G1, sequence (P54619 whole entry partner): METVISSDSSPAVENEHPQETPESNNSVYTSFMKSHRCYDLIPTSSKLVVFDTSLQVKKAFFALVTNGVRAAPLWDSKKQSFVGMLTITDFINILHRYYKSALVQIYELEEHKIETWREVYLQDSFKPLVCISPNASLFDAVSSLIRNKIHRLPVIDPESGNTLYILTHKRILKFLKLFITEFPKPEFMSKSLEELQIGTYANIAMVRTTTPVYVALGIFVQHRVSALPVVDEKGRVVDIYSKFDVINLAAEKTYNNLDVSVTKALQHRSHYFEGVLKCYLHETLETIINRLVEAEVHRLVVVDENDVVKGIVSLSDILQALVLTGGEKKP
ROS, sequence (P08922 28-2347): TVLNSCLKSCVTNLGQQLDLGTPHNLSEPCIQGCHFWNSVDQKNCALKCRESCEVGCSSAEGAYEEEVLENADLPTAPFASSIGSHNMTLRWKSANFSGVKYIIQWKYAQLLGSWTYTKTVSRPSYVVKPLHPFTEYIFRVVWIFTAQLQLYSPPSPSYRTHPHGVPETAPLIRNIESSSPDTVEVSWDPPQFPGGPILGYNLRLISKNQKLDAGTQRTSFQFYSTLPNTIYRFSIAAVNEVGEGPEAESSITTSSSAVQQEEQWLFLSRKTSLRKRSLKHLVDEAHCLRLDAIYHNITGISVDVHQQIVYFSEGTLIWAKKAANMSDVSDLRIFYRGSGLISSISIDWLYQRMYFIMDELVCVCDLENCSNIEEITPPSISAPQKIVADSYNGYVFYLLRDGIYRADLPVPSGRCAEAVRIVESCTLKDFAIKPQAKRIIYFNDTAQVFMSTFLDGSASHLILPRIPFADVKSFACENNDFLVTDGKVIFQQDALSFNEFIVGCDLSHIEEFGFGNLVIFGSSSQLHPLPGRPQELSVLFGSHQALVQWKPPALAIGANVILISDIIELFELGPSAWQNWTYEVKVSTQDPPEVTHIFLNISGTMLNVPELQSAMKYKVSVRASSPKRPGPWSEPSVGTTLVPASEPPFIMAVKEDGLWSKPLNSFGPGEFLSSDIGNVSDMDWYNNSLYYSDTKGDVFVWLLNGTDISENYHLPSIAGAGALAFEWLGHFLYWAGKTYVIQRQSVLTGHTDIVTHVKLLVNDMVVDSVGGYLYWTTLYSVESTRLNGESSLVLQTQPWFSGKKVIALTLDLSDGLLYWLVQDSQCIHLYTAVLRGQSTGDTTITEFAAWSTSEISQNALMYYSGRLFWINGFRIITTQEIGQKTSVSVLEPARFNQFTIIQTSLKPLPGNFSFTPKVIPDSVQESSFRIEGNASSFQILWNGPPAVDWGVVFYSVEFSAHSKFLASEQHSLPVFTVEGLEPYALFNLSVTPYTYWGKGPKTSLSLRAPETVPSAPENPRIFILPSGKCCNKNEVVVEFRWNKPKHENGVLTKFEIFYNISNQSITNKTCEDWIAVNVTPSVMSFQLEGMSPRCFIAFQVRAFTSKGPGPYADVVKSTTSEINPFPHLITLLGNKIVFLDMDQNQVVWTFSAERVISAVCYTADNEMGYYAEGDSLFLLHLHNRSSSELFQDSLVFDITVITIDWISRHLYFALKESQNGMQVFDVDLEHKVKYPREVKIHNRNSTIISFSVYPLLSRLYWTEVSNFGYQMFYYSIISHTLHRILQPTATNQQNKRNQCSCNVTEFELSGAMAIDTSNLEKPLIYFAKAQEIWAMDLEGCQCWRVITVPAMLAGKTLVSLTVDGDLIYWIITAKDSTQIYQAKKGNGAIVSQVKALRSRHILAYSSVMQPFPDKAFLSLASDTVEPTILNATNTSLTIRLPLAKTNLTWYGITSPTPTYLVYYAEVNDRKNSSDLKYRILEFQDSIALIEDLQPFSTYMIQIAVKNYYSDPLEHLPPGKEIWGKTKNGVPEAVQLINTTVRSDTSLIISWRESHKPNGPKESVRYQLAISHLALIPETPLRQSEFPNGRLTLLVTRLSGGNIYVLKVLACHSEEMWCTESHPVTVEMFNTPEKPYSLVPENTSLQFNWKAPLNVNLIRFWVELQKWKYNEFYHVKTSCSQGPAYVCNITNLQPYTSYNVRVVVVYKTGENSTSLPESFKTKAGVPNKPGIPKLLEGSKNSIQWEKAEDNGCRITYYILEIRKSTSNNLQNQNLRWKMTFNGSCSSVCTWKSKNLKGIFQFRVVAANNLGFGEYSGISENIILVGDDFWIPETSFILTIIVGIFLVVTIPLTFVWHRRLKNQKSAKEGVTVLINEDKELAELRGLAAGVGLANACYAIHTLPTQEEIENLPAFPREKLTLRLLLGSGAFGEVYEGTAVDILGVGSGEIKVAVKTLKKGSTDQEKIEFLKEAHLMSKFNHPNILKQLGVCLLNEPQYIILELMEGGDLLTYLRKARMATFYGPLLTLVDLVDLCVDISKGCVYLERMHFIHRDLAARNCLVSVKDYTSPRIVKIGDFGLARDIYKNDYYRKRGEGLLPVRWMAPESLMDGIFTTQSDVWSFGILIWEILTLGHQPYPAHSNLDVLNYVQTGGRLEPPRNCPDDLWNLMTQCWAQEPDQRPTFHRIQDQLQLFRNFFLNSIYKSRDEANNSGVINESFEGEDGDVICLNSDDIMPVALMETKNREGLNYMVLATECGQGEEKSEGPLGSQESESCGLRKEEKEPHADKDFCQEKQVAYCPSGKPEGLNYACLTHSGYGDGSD
GRK6, sequence (P43250 whole entry): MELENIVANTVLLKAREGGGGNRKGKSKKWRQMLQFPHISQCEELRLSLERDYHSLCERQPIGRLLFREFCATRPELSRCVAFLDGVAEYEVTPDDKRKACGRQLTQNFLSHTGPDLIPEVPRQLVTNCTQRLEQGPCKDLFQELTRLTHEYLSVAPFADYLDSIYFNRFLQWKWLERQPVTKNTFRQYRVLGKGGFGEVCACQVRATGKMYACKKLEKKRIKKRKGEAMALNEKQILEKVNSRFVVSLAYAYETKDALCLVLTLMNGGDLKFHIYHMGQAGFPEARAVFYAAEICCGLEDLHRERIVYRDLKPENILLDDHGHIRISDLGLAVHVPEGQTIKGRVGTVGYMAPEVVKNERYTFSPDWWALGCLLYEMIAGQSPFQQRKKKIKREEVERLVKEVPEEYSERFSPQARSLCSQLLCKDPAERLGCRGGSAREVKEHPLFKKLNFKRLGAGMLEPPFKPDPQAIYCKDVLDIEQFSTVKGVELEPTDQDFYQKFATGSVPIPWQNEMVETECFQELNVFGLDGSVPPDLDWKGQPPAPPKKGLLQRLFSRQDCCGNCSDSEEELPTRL

Compound	inhibition at 0.1 µM [1] [%]	inhibition at 1 µM [1] [%]	inhibition at 0.1 µM [2] [%]	inhibition at 1 µM [2] [%]	inhibition at 0.1 µM [3] [%]	inhibition at 1 µM [3] [%]	inhibition at 0.1 µM [4] [%]	inhibition at 1 µM [4] [%]	inhibition at 0.1 µM [5] [%]	inhibition at 1 µM [5] [%]	inhibition at 0.1 µM [6] [%]	inhibition at 1 µM [6] [%]	inhibition at 0.1 µM [7] [%]	inhibition at 1 µM [7] [%]	inhibition at 0.1 µM [8] [%]	inhibition at 1 µM [8] [%]	inhibition at 0.1 µM [9] [%]	inhibition at 1 µM [9] [%]	inhibition at 0.1 µM [10] [%]	inhibition at 1 µM [10] [%]
COc1cc(-c2cc(-c3ccc(N4CCNCC4)cc3)cnc2C)cc(OC)c1OC [Compound 10, 1-(4-(6-methyl-5-(3,4,5-trimethoxyphenyl)pyridin-3-yl)phenyl)piperazine]	4	-3	3	3	2	2	-2	1	5	1	12	3	3	18	7	9	8	3	6	35
COc1cc(-c2cc(-c3ccc(N4CCNCC4)cc3)cnc2N)cc(OC)c1OC [Compound 15, 5-(4-(piperazin-1-yl)phenyl)-3-(3,4,5-trimethoxyphenyl)pyridin-2-amine]	2	6	0	6	1	7	-3	4	0	5	1	1	1	5	3	4	0	0	6	44
